# How the values were obtained:
# [1] = tested on: Phosphatidylinositol 4,5-bisphosphate 3-kinase catalytic subunit alpha isoform (Homo sapiens), P42336 [C420R]; test: Inhibition of T7 bacteriophage fused human PIK3CA C420R mutant at 10 uM by KINOMEscan analysis relative to control
# [2] = target: Dual specificity mitogen-activated protein kinase kinase 4 (Homo sapiens) (UniProt P45985); test: Inhibition of T7 bacteriophage fused human MEK4 at 10 uM by KINOMEscan analysis relative to control
# [3] = target: Phosphatidylinositol 4-phosphate 3-kinase C2 domain-containing subunit beta (Homo sapiens) (UniProt O00750); test: Inhibition of T7 bacteriophage fused human PIK3C2B at 10 uM by KINOMEscan analysis relative to control
# [4] = tested on: Phosphatidylinositol 4,5-bisphosphate 3-kinase catalytic subunit alpha isoform (Homo sapiens), P42336 [M1043I]; test: Inhibition of T7 bacteriophage fused human PIK3CA M1043I mutant at 10 uM by KINOMEscan analysis relative to control
# [5] = target: Macrophage colony-stimulating factor 1 receptor (Homo sapiens) (UniProt P07333); test: Inhibition of T7 bacteriophage fused human CSF1R at 10 uM by KINOMEscan analysis relative to control; values are per cent of control
# [6] = target: Calcium/calmodulin-dependent protein kinase type 1D (Homo sapiens) (UniProt Q8IU85); test: Inhibition of T7 bacteriophage fused human CAMK1D at 10 uM by KINOMEscan analysis relative to control
# [7] = target: Serine/threonine-protein kinase STK11 (Homo sapiens) (UniProt Q15831); test: Inhibition of T7 bacteriophage fused human LKB1 at 10 uM by KINOMEscan analysis relative to control; values are per cent of control
# [8] = tested on: Mast/stem cell growth factor receptor Kit (Homo sapiens), P10721 [A829P]; test: Inhibition of T7 bacteriophage fused human KIT A829P mutant at 10 uM by KINOMEscan analysis relative to control
# [9] = target: Phosphatidylinositol 4,5-bisphosphate 3-kinase catalytic subunit alpha isoform (Homo sapiens) (UniProt P42336); test: Inhibition of T7 bacteriophage fused human PIK3CA at 10 uM by KINOMEscan analysis relative to control
# [10] = target: Serine/threonine-protein kinase RIO2 (Homo sapiens) (UniProt Q9BVS4); test: Inhibition of T7 bacteriophage fused human RIOK2 at 10 uM by KINOMEscan analysis relative to control
# [11] = target: Activin receptor type-2A (Homo sapiens) (UniProt P27037); test: Inhibition of T7 bacteriophage fused human ACVR2A at 10 uM by KINOMEscan analysis relative to control
# [12] = target: Megakaryocyte-associated tyrosine-protein kinase (Homo sapiens) (UniProt P42679); test: Inhibition of T7 bacteriophage fused human CTK at 10 uM by KINOMEscan analysis relative to control
# [13] = target: Serine/threonine-protein kinase BRSK1 (Homo sapiens) (UniProt Q8TDC3); test: Inhibition of T7 bacteriophage fused human BRSK1 at 10 uM by KINOMEscan analysis relative to control
# [14] = target: Ephrin type-A receptor 6 (Homo sapiens) (UniProt Q9UF33); test: Inhibition of T7 bacteriophage fused human EPHA6 at 10 uM by KINOMEscan analysis relative to control
# [15] = target: Serine/threonine-protein kinase RIO3 (Homo sapiens) (UniProt O14730); test: Inhibition of T7 bacteriophage fused human RIOK3 at 10 uM by KINOMEscan analysis relative to control
# [16] = target: Serine/threonine-protein kinase tousled-like 1 (Homo sapiens) (UniProt Q9UKI8); test: Inhibition of T7 bacteriophage fused human TLK1 at 10 uM by KINOMEscan analysis relative to control
# [17] = target: NUAK family SNF1-like kinase 1 (Homo sapiens) (UniProt O60285); test: Inhibition of T7 bacteriophage fused human ARK5 at 10 uM by KINOMEscan analysis relative to control
# [18] = target: Serine/threonine-protein kinase pim-3 (Homo sapiens) (UniProt Q86V86); test: Inhibition of T7 bacteriophage fused human PIM3 at 10 uM by KINOMEscan analysis relative to control
# [19] = target: Serine/threonine-protein kinase/endoribonuclease IRE1 (Homo sapiens) (UniProt O75460); test: Inhibition of T7 bacteriophage fused human ERN1 at 10 uM by KINOMEscan analysis relative to control; values are per cent of control
# [20] = target: Rho-associated protein kinase 2 (Homo sapiens) (UniProt O75116); test: Inhibition of T7 bacteriophage fused human ROCK2 at 10 uM by KINOMEscan analysis relative to control
# [21] = target: Ephrin type-B receptor 1 (Homo sapiens) (UniProt P54762); test: Inhibition of T7 bacteriophage fused human EPHB1 at 10 uM by KINOMEscan analysis relative to control; values are per cent of control
# [22] = target: Ephrin type-B receptor 2 (Homo sapiens) (UniProt P29323); test: Inhibition of T7 bacteriophage fused human EPHB2 at 10 uM by KINOMEscan analysis relative to control
# [23] = target: Mitogen-activated protein kinase kinase kinase kinase 3 (Homo sapiens) (UniProt Q8IVH8); test: Inhibition of T7 bacteriophage fused human MAP4K3 at 10 uM by KINOMEscan analysis relative to control; values are per cent of control
# [24] = tested on: Epidermal growth factor receptor (Homo sapiens), P00533 [UNDEFINED MUTATION]; test: Inhibition of T7 bacteriophage fused human EGFR L747/S752del/P753S mutant at 10 uM by KINOMEscan analysis relative to control; values are per cent of control
# [25] = target: Mitogen-activated protein kinase 1 (Homo sapiens) (UniProt P28482); test: Inhibition of T7 bacteriophage fused human ERK2 at 10 uM by KINOMEscan analysis relative to control; values are per cent of control
# [26] = tested on: Phosphatidylinositol 4,5-bisphosphate 3-kinase catalytic subunit alpha isoform (Homo sapiens), P42336 [E542K]; test: Inhibition of T7 bacteriophage fused human PIK3CA E542K mutant at 10 uM by KINOMEscan analysis relative to control
# [27] = target: Serine/threonine-protein kinase TAO2 (Homo sapiens) (UniProt Q9UL54); test: Inhibition of T7 bacteriophage fused human TAOK2 at 10 uM by KINOMEscan analysis relative to control
# [28] = target: Eukaryotic translation initiation factor 2-alpha kinase 1 (Homo sapiens) (UniProt Q9BQI3); test: Inhibition of T7 bacteriophage fused human EIF2AK1 at 10 uM by KINOMEscan analysis relative to control
# [29] = tested on: Mast/stem cell growth factor receptor Kit (Homo sapiens), P10721 [L576P]; test: Inhibition of T7 bacteriophage fused human KIT L576P mutant at 10 uM by KINOMEscan analysis relative to control
# Sequence of Phosphatidylinositol 4-phosphate 3-kinase C2 domain-containing subunit beta (Homo sapiens) (O00750 whole entry, the tested form may be a part, canonical isoform): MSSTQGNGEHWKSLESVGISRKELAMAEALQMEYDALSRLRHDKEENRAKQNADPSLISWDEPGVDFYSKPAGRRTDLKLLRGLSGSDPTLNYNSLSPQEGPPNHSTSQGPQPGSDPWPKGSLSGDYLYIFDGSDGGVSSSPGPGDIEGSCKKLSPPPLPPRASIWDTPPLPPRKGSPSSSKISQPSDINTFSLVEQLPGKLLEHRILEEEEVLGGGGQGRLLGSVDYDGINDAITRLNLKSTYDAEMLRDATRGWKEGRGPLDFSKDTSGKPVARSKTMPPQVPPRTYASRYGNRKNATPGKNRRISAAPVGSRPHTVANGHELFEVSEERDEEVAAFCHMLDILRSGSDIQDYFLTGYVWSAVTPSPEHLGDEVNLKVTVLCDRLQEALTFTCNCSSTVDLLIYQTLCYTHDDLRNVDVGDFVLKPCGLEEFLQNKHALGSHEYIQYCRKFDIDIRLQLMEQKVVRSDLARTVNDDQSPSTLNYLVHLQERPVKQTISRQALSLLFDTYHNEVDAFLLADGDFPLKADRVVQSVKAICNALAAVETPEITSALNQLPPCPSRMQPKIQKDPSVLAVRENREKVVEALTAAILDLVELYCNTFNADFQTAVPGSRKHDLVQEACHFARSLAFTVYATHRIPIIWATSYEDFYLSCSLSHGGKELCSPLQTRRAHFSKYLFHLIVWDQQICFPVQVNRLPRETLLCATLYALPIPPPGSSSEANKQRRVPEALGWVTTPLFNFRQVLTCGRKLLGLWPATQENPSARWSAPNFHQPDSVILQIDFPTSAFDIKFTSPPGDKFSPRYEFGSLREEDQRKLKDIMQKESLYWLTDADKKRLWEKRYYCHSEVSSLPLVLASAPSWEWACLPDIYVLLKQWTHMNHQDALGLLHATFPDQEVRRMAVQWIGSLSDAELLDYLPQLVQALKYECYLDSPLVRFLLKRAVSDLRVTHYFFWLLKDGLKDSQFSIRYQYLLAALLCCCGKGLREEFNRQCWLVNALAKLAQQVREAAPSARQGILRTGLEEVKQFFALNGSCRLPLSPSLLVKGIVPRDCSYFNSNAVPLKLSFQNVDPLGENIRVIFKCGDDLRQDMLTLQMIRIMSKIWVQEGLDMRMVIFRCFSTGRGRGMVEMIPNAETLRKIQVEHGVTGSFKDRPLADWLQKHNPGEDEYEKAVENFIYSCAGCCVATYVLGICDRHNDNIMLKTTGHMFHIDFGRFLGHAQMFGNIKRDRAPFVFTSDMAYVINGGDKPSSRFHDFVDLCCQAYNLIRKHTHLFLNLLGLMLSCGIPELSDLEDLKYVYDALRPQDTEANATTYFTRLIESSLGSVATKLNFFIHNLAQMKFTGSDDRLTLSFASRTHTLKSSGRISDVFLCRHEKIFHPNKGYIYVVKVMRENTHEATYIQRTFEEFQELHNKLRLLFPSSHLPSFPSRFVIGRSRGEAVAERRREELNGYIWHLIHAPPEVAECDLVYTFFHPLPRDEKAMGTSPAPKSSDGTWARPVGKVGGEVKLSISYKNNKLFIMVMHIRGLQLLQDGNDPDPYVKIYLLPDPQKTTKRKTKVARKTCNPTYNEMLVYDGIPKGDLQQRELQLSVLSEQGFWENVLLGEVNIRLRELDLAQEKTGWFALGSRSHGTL
# Sequence of Serine/threonine-protein kinase TAO2 (Homo sapiens) (Q9UL54 whole entry, the tested form may be a part): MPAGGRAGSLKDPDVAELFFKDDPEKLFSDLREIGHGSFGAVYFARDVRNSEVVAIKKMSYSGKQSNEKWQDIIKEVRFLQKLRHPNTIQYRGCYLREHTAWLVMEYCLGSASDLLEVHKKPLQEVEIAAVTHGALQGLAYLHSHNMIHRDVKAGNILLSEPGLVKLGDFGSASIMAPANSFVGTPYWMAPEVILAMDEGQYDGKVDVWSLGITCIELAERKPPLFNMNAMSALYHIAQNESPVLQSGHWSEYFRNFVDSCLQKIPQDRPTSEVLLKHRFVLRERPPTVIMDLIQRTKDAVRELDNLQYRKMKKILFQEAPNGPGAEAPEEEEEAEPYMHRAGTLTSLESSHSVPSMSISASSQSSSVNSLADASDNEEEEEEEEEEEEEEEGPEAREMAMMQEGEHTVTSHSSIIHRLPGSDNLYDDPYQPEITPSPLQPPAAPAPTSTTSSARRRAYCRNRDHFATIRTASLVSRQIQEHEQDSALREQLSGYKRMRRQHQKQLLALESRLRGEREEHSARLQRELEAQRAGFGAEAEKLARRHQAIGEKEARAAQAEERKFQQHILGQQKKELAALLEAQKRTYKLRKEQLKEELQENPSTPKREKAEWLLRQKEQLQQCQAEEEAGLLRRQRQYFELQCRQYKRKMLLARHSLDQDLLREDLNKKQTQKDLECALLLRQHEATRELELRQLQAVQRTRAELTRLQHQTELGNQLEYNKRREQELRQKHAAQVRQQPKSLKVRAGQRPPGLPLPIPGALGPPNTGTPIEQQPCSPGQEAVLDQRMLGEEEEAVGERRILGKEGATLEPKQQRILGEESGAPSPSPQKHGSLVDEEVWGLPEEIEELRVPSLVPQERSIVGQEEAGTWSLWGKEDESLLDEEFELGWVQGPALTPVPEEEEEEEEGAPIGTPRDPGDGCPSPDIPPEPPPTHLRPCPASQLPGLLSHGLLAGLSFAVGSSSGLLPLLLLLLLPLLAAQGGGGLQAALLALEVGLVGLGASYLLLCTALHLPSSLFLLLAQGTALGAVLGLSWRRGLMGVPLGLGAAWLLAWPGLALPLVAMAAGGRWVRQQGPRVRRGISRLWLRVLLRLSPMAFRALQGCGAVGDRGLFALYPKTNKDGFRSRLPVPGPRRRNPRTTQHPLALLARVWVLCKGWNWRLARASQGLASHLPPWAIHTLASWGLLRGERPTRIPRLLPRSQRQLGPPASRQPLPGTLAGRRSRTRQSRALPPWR
# Sequence of Serine/threonine-protein kinase/endoribonuclease IRE1 (Homo sapiens) (O75460 19-977 limits assumed): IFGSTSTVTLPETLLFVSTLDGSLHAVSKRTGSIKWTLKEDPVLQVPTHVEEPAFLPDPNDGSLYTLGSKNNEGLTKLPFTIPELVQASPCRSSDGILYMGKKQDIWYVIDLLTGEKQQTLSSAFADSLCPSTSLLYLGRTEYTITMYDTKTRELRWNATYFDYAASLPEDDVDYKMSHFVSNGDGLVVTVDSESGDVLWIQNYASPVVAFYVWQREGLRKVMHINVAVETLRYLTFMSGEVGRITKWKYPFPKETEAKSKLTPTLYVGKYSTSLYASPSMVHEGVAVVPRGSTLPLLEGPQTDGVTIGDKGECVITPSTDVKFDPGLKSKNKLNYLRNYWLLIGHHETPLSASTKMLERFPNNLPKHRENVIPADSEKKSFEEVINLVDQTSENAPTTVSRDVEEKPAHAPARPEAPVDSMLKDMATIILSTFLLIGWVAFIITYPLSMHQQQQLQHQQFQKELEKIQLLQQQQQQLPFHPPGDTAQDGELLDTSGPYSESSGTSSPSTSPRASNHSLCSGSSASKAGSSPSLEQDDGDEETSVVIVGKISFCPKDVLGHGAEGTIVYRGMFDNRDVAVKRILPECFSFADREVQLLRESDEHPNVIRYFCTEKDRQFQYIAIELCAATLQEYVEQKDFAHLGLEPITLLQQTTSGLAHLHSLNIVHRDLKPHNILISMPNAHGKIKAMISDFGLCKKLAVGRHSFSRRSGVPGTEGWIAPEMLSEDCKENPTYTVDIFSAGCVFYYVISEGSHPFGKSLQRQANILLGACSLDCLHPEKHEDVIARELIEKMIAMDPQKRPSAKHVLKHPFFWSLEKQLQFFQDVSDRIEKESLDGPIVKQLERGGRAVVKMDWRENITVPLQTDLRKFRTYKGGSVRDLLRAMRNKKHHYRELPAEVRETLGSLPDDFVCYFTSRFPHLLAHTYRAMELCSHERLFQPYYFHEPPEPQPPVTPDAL
# Sequence of Mitogen-activated protein kinase 1 (Homo sapiens) (P28482 whole entry, the tested form may be a part, canonical isoform): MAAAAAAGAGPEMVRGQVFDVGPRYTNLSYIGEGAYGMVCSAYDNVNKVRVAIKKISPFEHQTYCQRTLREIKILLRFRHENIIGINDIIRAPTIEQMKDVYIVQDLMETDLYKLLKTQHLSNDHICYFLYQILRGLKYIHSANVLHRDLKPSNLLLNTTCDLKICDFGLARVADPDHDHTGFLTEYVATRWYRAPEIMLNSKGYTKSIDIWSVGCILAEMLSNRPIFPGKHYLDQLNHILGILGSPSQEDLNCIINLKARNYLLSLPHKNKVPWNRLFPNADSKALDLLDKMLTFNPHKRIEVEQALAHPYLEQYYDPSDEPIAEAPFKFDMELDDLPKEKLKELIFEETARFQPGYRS
# Sequence of NUAK family SNF1-like kinase 1 (Homo sapiens) (O60285 whole entry, the tested form may be a part): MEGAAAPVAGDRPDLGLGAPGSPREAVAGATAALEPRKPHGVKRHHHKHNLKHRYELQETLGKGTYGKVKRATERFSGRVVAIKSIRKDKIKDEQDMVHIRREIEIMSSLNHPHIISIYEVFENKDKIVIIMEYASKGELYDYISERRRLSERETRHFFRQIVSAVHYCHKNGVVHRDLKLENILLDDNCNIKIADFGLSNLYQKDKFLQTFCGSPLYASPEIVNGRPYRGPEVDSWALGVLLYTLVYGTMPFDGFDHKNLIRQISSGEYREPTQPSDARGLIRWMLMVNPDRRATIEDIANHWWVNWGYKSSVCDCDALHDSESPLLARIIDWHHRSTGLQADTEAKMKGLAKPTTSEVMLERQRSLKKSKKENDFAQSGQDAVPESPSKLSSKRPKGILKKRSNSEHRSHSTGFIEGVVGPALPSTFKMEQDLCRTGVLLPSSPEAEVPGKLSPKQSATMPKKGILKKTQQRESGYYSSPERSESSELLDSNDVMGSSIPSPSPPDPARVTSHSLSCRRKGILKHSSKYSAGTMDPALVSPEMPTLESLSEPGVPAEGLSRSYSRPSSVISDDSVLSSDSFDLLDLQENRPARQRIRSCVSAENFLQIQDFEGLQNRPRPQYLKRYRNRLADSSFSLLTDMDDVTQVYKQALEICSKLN
structure (smiles),measurement,setting,value
COc1cc(N2CCC(N3CCN(C)CC3)CC2)ccc1Nc1ncc2c(n1)N(C)c1ccccc1C(=O)N2C,inhibition,[1],89%
same,inhibition,[2],100%
same,inhibition,[3],100%
same,inhibition,[4],65%
same,residual activity,[5],98%
same,inhibition,[6],69%
same,residual activity,[7],96%
same,inhibition,[8],100%
same,inhibition,[9],74%
same,inhibition,[10],100%
same,inhibition,[11],100%
same,inhibition,[12],100%
same,inhibition,[13],81%
same,inhibition,[14],89%
same,inhibition,[15],85%
same,inhibition,[16],100%
same,inhibition,[17],47%
same,inhibition,[18],88%
same,residual activity,[19],59%
same,inhibition,[20],87%
same,residual activity,[21],98%
same,inhibition,[22],100%
same,residual activity,[23],71%
same,residual activity,[24],84%
same,residual activity,[25],85%
same,inhibition,[26],77%
same,inhibition,[27],65%
same,inhibition,[28],100%
same,inhibition,[29],100%

# Source: ChEMBL document CHEMBL5678810
